According to patent US20250098678A1, “METHOD OF CONTROLLING FUNGI” (UPL CORPORATION LIMITED, priority 2022, published 2025):

Columns and labels:
Plasmopara halstedii = test: Anti-fungal activity of treated sunflower seeds against Plasmopara halstedii (seed treatment, % incidence); type: in vivo; conditions: for % Incidence: sunflower seed treatment, 12 DAS, inoculated with P. halstedii
Description: Example 1: Evaluation of Anti-Fungal Activity of Sunflower Seeds Treated with Cyazofamid Against Plasmopara halstedii One tray for each treatment was filled with perlite that was covered with two layers of watered paper. Treated seeds were placed between the layers under sterile conditions and incubated at 22° C. to 24° C., 100% relative humidity (RH) for 48 h. Zoosporangia from cotyledons of sunflower plants previously infected by an isolate of P. halstedii were removed with deionized water. The suspension was filtered through two layers of sterile cheesecloth and the inoculum concentration was adjusted to 2×10^5 zoosporangia/ml. Treated and germinated seeds were immersed in the zoosporangial suspension for 5 hours. Bioassays were then designed and conducted under controlled growth conditions. Five pots per treatment were filled with perlite and nine sunflower seeds were sown in each pot. Plants were grown at 19° C., 70-100% relative humidity and a 10 h dark/14 h light photoperiod for 12 days. The seed arrangement was made as 50 seeds/plot (pot10×10 cm). The treatments used are depicted below. [table] The % incidence of fungal disease caused by Plasmapora halstedii was observed 12 DAS (days after sowing seeds).

Pythium ultimum = test: Anti-fungal activity of treated seeds against Pythium ultimum (field trials, patch score); type: in vivo; conditions: for P. ultimum patch score: seed treatment, field trial
Excerpt: Example 2: Evaluation of Anti-Fungal Activity of Maize Seeds Treated with Cyazofamid Against Pythium ultimum The present inventors have determined the % pathogen control of Pythium ultimum control in […] treated with cyazofamid in field trials. The treatments employed and the results have been depicted in table 3 below. [table]

Structure (SMILES)	% Incidence (Plasmopara halstedii; application rate 50 g/100/kg) [%]	% Incidence (Plasmopara halstedii; application rate 100 g/100/kg) [%]	P. ultimum patch score indicating the severity of the fungal disease (Pythium ultimum; compared to the untreated control, result in words)	P. ultimum patch score (Pythium ultimum; 10 g.ai/100 kg, 25 ml/100 kg seeds) [b]	P. ultimum patch score (Pythium ultimum; 20 g.ai/100 kg, 50 ml/100 kg seeds) [b]	P. ultimum patch score (Pythium ultimum; 30 g.ai/100 kg, 75 ml/100 kg seeds) [b]	P. ultimum patch score (Pythium ultimum; 50 g.ai/100 kg, 125 ml/100 kg seeds) [b]	P. ultimum patch score (Pythium ultimum; 100 g.ai/100 kg, 250 ml/100 kg seeds) [b]	% Incidence (Plasmopara halstedii; application rate 35 g/100/kg) [%]	% Incidence (Plasmopara halstedii; application rate 60 g/100/kg) [%]	occurrence of fungal disease (Plasmopara halstedii; treated sunflower seeds, result in words)
Cc1ccc(-c2c(Cl)nc(C#N)n2S(=O)(=O)N(C)C)cc1 [Cyazofamid, 4-chloro-2-cyano-N,N-dimethyl-5-p-tolylimidazole-1-sulfonamide]	0	0	significantly low	1.5	1.5	1.5	1.5	1.3			
COCC(=O)N(c1c(C)cccc1C)C(C)C(=O)OC (centres unmarked) [Metalaxyl]									53.49	62.24	high
